# From patent US20170233345A1, “SUBSTITUTED QUINOLINE-4-CARBOXAMIDES AND USE THEREOF” (BAYER PHARMA AKTIENGESELLSCHAFT, priority 2014, published 2017)
# Structures can show the parent of a compound that is named as a salt.
# System: recombinant guanylate cyclase reporter cell line
# Assay: Effect on a recombinant guanylate cyclase reporter cell line
# Assay type: cell-based
# Conditions: in some cases mean values from individual determinations, read-out: MEC (minimum effective concentration)
# Description: B-2. Effect on a Recombinant Guanylate Cyclase Reporter Cell Line
# The cellular activity of the compounds according to the invention is determined using a recombinant guanylate cyclase reporter cell line, as described in F. Wunder et al., Anal. Biochem. 339, 104-112 (2005).
# Representative MEC values (MEC=minimum effective concentration) for the compounds of the invention are shown in the table below (in some cases as mean values from individual determinations): […]
row,SMILES,minimal effective concentration [µM]
1,"CC[C@](C)(N)CNC(=O)c1cnc2c(OCc3c(F)cccc3F)cccc2c1 [Example 41, N-[(2S)-2-Amino-2-methylbutyl]-8-[(2,6-difluorobenzyl)oxy]quinoline-3-carboxamide]",10
2,"CC(N)(CCC(F)(F)F)CNC(=O)c1cnc2c(OCc3c(F)cccc3F)cccc2c1 (single isomer, unassigned; enantiomer b) [Example 40, ent-N-(2-Amino-5,5,5-trifluoro-2-methylpentyl)-8-[(2,6-difluorobenzyl)oxy]quinoline-3-carboxamide (Enantiomer B)]",10
3,"Cc1cc(OCc2c(F)cccc2F)c2nccc(C(=O)NC(C)(CO)c3nnn(C(F)F)n3)c2c1 (racemic) [Example 49, rac-8-[(2,6-Difluorobenzyl)oxy]-N-{2-[2-(difluoromethyl)-2H-tetrazol-5-yl]-1-hydroxypropan-2-yl}-6-methylquinoline-4-carboxamide]",2
4,"CCCC[C@H](C)NC(=O)c1ccnc2c(OCc3c(F)cccc3F)cccc12 [Example 3, 8-[(2,6-Difluorobenzyl)oxy]-N-[(2S)-hexan-2-yl]quinoline-4-carboxamide]",1
5,"Cc1cc(OCc2c(F)cccc2F)c2nccc(C(=O)NCC(C)(N)CCC(F)(F)F)c2c1 (single isomer, unassigned; enantiomer b) [Example 45, ent-N-(2-Amino-5,5,5-trifluoro-2-methylpentyl)-8-[(2,6-difluorobenzyl)oxy]-6-methylquinoline-4-carboxamide (Enantiomer B)]",0.65
6,O=C(NCC1(O)CC1)c1ccnc2c(OCc3c(F)cccc3F)cccc12 [Example 22],3
7,"O=C(NCCC1(O)CCCC1)c1ccnc2c(OCc3c(F)cccc3F)cccc12 [Example 8, 8-[(2,6-Difluorobenzyl)oxy]-N-[2-(1-hydroxycyclopentyl)ethyl]quinoline-4-carboxamide]",3
8,O=C(NCc1ccccc1-n1ccnc1)c1ccnc2c(OCc3c(F)cccc3F)cccc12 [Example 28],3
9,"O=C(Nc1ccnc2ccc(F)cc12)c1ccnc2c(OCc3c(F)cccc3F)cccc12 [Example 2, 8-[(2,6-Difluorobenzyl)oxy]-N-(6-fluoroquinolin-4-yl)quinoline-4-carboxamide]",10
10,"CCCC[C@H](CO)NC(=O)c1cnc2c(OCc3c(F)cccc3F)cccc2c1 [Example 38, 8-[(2,6-Difluorobenzyl)oxy]-N-[(2R)-1-hydroxyhexan-2-yl]quinoline-3-carboxamide]",3
11,O=C(N[C@@H](CO)C(=O)Nc1ccc2ccccc2c1)c1ccnc2c(OCc3c(F)cccc3F)cccc12 [Example 10],10
12,CC(COCC(F)(F)F)NC(=O)c1ccnc2c(OCc3c(F)cccc3F)cccc12 (stereo not drawn) [Example 21],3
13,"CC[C@](C)(N)CNC(=O)c1ccnc2c(OCc3c(F)cccc3F)cccc12 [Example 5, N-[(2S)-2-Amino-2-methylbutyl]-8-[(2,6-difluorobenzyl)oxy]quinoline-4-carboxamide]",3
14,"COc1ccc(CC(C)(N)CNC(=O)c2ccnc3c(OCc4c(F)cccc4F)cccc23)cc1 (racemic) [Example 35, rac-N-[2-amino-3-(4-methoxyphenyl)-2-methylpropyl]-8-[(2,6-difluorobenzyl)oxy]quinoline-4-carboxamide trifluoroacetate]",3
15,"CC(C)(O)C(CCC(F)(F)C(F)(F)F)NC(=O)c1ccnc2c(OCc3c(F)cccc3F)cccc12 (single isomer, unassigned; ent-8) [Example 32, ent-8-[(2,6-Difluorobenzyl)oxy]-N-(6,6,7,7,7-pentafluoro-2-hydroxy-2-methylheptan-3-yl)quinoline-4-carboxamide (Enantiomer A)]",2
16,O=C(NC1CCCc2ccccc21)c1ccnc2c(OCc3c(F)cccc3F)cccc12 (stereo not drawn) [Example 29],0.3
17,"CCCC[C@H](CO)NC(=O)c1cc(C)nc2c(OCc3c(F)cccc3F)cccc12 [Example 46, ent-8-[(2,6-Difluorobenzyl)oxy]-N-[(2R)-1-hydroxyhexan-2-yl]-2-methylquinoline-4-carboxamide (Enantiomer)]",2
18,"CC(N)(CCC(F)(F)F)CNC(=O)c1ccnc2c(OCc3c(F)cccc3F)cccc12 (single isomer, unassigned; enantiomer b) [Example 6, ent-N-(2-Amino-5,5,5-trifluoro-2-methylpentyl)-8-[(2,6-difluorobenzyl)oxy[quinoline-4-carboxamide (Enantiomer B)]",0.3
19,"CCC(C)(N)CNC(=O)c1cc(C)nc2c(OCc3c(F)cccc3F)cccc12 (single isomer, unassigned; enantiomer b) [Example 47, ent-N-(2-Amino-2-methylbutyl)-8-[(2,6-difluorobenzyl)oxy]-2-methylquinoline-4-carboxamide (Enantiomer B)]",3
20,"Cc1cc(OCc2c(F)cccc2F)c2nccc(C(=O)N[C@@](C)(CO)c3nnc(C)s3)c2c1 [Example 48, ent-8-[(2,6-Difluorobenzyl)oxy]-N-[(2S)-1-hydroxy-2-(5-methyl-1,3,4-thiadiazol-2-yl)propan-2-yl]-6-methylquinoline-4-carboxamide]",3
21,CCC(CO)(CO)NC(=O)c1ccnc2c(OCc3c(F)cccc3F)cccc12 [Example 25],10
22,CC(NC(=O)c1ccnc2c(OCc3c(F)cccc3F)cccc12)c1nc(C(F)(F)F)no1 (stereo not drawn) [Example 18],3
23,O=C(NCCN1CCOCC1)c1ccnc2c(OCc3c(F)cccc3F)cccc12 [Example 16],10
24,CN(C)CCNC(=O)c1ccnc2c(OCc3c(F)cccc3F)cccc12 [Example 14],10
25,O=C(NC1c2ccccc2CC1O)c1ccnc2c(OCc3c(F)cccc3F)cccc12 (stereo not drawn) [Example 9],3
26,"CC(N)(CNC(=O)c1ccnc2c(OCc3c(F)cccc3F)cccc12)CC(F)F (single isomer, unassigned; enantiomer b) [Example 7, ent-N-(2-Amino-4,4-difluoro-2-methylbutyl)-8-[(2,6-difluorobenzyl)oxy]quinoline-4-carboxamide (Enantiomer B)]",2
27,O=C(Nc1cnn(CCO)c1)c1ccnc2c(OCc3c(F)cccc3F)cccc12 [Example 30],10
